This note sets out measurements from US7943770B2, “Fused quinoline derivative and use thereof” (Takeda Pharmaceutical Company Limited, priority 2004, dated 2011).

Where only a bound is given, the exact number is not on record here.

For this assay, the target named is T1, hNK2 receptor (Homo sapiens, UniProt P21452).
T1 construct: host or cells: CHO cells
T1 sequence (P21452 1-398): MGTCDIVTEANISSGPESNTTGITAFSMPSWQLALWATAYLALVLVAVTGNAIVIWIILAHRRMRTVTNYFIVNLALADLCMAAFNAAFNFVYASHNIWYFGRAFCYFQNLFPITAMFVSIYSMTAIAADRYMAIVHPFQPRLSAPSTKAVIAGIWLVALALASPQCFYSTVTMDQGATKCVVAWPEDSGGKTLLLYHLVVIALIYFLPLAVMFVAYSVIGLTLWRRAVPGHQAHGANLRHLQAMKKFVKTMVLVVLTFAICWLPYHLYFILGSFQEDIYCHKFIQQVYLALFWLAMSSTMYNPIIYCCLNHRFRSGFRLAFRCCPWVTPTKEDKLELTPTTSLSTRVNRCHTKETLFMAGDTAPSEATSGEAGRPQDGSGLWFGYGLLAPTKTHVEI
Put plainly: Radio-ligand ([125I]-NKA) receptor binding inhibitory activity using membrane fraction of hNK2 receptor-expressing CHO cell. The conditions noted are these: membrane fraction of hNK2 receptor-expressing CHO cells, 25° C., 30 min. As for the experimental part:
hNK2 receptor-expressing CHO cells (produced by EUROSCREEN) were cultured in HAM-F12 medium containing 400 μg/ml Geneticin, 100 U/mL penicillin, 100 μg/mL streptomycin and 10% inactivated serum. The medium was removed and adhered cells were washed with PBS, and PBS containing 5 mM EDTA was added to detach the cells from the flask. The cells were recovered by centrifugation, suspended in suspending buffer A (15 mM Tris-HCl (pH 7.5), 2 mM MgCl2, 0.3 mM EDTA, 1 mM EGTA), disrupted by POLYTRON homogenizer (manufactured by KINEMATICA) and centrifuged at 800×g for 10 min. The supernatant was recovered and ultracentrifuged at 100000×g for 25 min. The precipitated fraction was suspended in suspending buffer B (7.5 mM Tris-HCl (pH 7.5), 12.5 mM MgCl2, 0.3 mM EDTA, 1 mM, […], 250 mM Sucrose) and cryopreserved (at −80° C.) as a receptor specimen.
An assay buffer (50 μl, 50 mM Tris-HCl (pH 7.4), 0.02% bovine serum albumin, 2 μg/mL chymostatin, 40 μg/mL bacitracin, 40 μg/mL APMSF, 3 mM MnCl2) was added to a 96 well microassay plate. Thereto was added a 20 μg/mL membrane specimen suspended in the assay buffer (50 μL). An assay buffer (50 μL) containing 2% dimethyl sulfoxide was added to examine the total binding, 4 unlabeled NKA (produced by Peptide Institute, Inc.) solution (50 μL) diluted with an assay buffer containing 2% dimethyl sulfoxide was added to examine non-specific binding, and a test compound diluted with an assay buffer (50 containing 2% dimethyl sulfoxide) was added to examine the binding inhibitory activity of the test compound. Furthermore, […] [^125I]-NKA (produced by Amersham Biosciences) solution (50 μL) was added to each well.
After reaction at 25° C. for 30 min., the reaction was stopped by rapid filtration on a unifilter plate (GF/C) (manufactured by PerkinElmer) using a cell harvester (manufactured by PerkinElmer) and the cells were washed 5 times with 50 mM Tris-HCl (pH 7.4) buffer containing 0.02% bovine serum albumin (250 μL). The GF/C filter plate was dried and 20 μl, of MicroScinti-O (manufactured by PerkinElmer) was added and the radioactivity was measured in Topcount (manufactured by PerkinElmer). The GF/C filter plate, which had been immersed in 0.3% polyethyleneimine for one day, was used. Specific binding is shown by the value obtained by subtracting non-specific binding from the total binding. The binding inhibitory activity of the test compound is shown by the ratio of the value obtained by subtracting the measured value associated with the addition of the test compound from the total binding, to the value of the specific binding.
One may read the IC50 as the concentration that inhibits the measured activity by half. Read a high IC50 as weaker potency in that assay. For the molecule `O=C(N[C@@H]1CCCC[C@@H]1C(=O)N1CC[C@@H]2[C@H](c3ncc[nH]3)Nc3ccccc3[C@@H]21)c1ccccc1` (relative stereo) [Example 54, N-((1R,2S)-2-{[(3aR*,4R*,9bR*)-4-(1H-Imidazol-2-yl)-2,3,3a,4,5,9b-hexahydro-1H-pyrrolo[3,2-c]quinolin-1-yl]carbonyl}cyclohexyl)benzamide], the IC50 was under 1 nM.

`O=C(N[C@@H]1CCCC[C@@H]1C(=O)N1CC[C@@H]2[C@H](c3ccn[nH]3)Nc3ccccc3[C@@H]21)c1ccccc1` (relative stereo) [Example 56, N-((1R,2S)-2-{[(3aR*,4R*,9bR*)-4-(1H-Pyrazol-5-yl]-2,3,3a,4,5,9b-hexahydro-1H-pyrrolo[3,2-c]quinolin-1-yl]carbonyl}cyclohexyl)benzamide]: the half-inhibitory concentration (IC50) was under 10 nM. Regarding `O=C(NC1(CC(=O)N2CC[C@@H]3[C@H](c4ccccc4)Nc4ccccc4[C@@H]32)CCCCC1)c1ccccc1` (relative stereo) [Example 312, N-(1-{2-oxo-2-[(3aR*,4R*,9bR*)-4-phenyl-2,3,3a,4,5,9b-hexahydro-1H-pyrrolo[3,2-c]quinolin-1-yl]ethyl}cyclohexyl)benzamide], the IC50 is under 10 nM.

`O=C(N[C@@H]1CCCC[C@@H]1C(=O)N1CC[C@@H]2C(C3CCOCC3)Nc3ccccc3[C@@H]21)c1ccccc1` (stereo in doubt) [Example 79, N-((1R,2S)-2-{[(3aR,4R,9bR)-4-Tetrahydro-2H-pyran-4-yl-2,3,3a,4,5,9b-hexahydro-1H-pyrrolo[3,2-c]quinolin-1-yl]carbonyl}cyclohexyl)benzamide]: the IC50 is under 10 nM.

For `O=C(N[C@@H]1CCCC[C@@H]1C(=O)N1CC[C@@H]2[C@H](c3ccccc3)Nc3ccccc3[C@@H]21)c1ccccc1` [Example 58, N-{(1R,2S)-2-[((3aR,4R,9bR)-4-Phenyl-2,3,3a,4,5,9b-hexahydro-1H-pyrrolo[3,2-c]quinolin-1-yl)carbonyl]cyclohexyl}benzamide], the half-maximal inhibitory concentration (IC50) is under 10 nM.

Consider `O=C(N[C@@H]1CCCC[C@@H]1C(=O)N1CC[C@@H]2[C@H](C3CC3)Nc3ccccc3[C@@H]21)c1ccccc1` [Example 59, N-((1R,2S)-2-[(3aR,4S,9bR)-(4-Cyclopropyl-2,3,3a,4,5,9b-hexahydro-1H-pyrrolo[3,2-c]quinolin-1-yl)carbonyl]cyclohexyl)benzamide], for which the IC50 is under 10 nM. In the case of `O=C(N[C@@H]1CCCC[C@@H]1C(=O)N1CC[C@@H]2[C@H](c3ccsc3)Nc3ccccc3[C@@H]21)c1ccccc1` [Example 60, N-((1R,2S)-2-{[(3aR,4R,9bR)-4-(3-Thienyl)-2,3,3a,4,5,9b-hexahydro-1H-pyrrolo[3,2-c]quinolin-1-yl]carbonyl}cyclohexyl)benzamide] it was under 1 nM. In the case of `O=C(N[C@@H]1CCCC[C@@H]1C(=O)N1CC[C@@H]2[C@H](c3ccccc3)Nc3ccc(F)cc3[C@@H]21)c1ccccc1` [Example 61, N-((1R,2S)-2-{[(3aR,4R,9bR)-8-Fluoro-4-phenyl-2,3,3a,4,5,9b-hexahydro-1H-pyrrolo[3,2-c]quinolin-1-yl]carbonyl}cyclohexyl)benzamide] it was under 10 nM. In the case of `CCC[C@@H]1Nc2ccccc2[C@H]2[C@@H]1CCN2C(=O)[C@H]1CCCC[C@H]1NC(=O)c1ccccc1` [Example 62, N-{(1R,2S)-2-[(3aR,4S,9bR)-(4-Propyl-2,3,3a,4,5,9b-hexahydro-1H-pyrrolo[3,2-c]quinolin-1-yl)carbonyl]cyclohexyl}benzamide] it was under 1 nM; in that of `O=C(N[C@@H]1CCCC[C@@H]1C(=O)N1CC[C@@H]2[C@H](c3ccoc3)Nc3ccccc3[C@@H]21)c1ccccc1` [Example 63, N-((1R,2S)-2-{[(3aR,4R,9bR)-4-(3-Furyl)-2,3,3a,4,5,9b-hexahydro-1H-pyrrolo[3,2-c]quinolin-1-yl]carbonyl}cyclohexyl)benzamide], under 1 nM. The molecule `O=C(N[C@@H]1CCCC[C@@H]1C(=O)N1CC[C@@H]2[C@H](c3ccc[nH]3)Nc3ccccc3[C@@H]21)c1ccccc1` [Example 64, N-((1R,2S)-2-{[(3aR,4R,9bR)-4-(1H-Pyrrol-2-yl)-2,3,3a,4,5,9b-hexahydro-1H-pyrrolo[3,2-c]quinolin-1-yl]carbonyl}cyclohexyl)benzamide] displayed an IC50 of under 1 nM. In the case of `CC(C)C[C@@H]1Nc2ccccc2[C@H]2[C@@H]1CCN2C(=O)[C@H]1CCCC[C@H]1NC(=O)c1ccccc1` [Example 66, N-((1R,2S)-2-{[(3aR,4S,9bR)-4-Isobutyl-2,3,3a,4,5,9b-hexahydro-1H-pyrrolo[3,2-c]quinolin-1-yl]carbonyl}cyclohexyl)benzamide] it was under 10 nM; in that of `O=C(NCC[C@@H]1Nc2ccccc2[C@H]2[C@@H]1CCN2C(=O)[C@H]1CCCC[C@H]1NC(=O)c1ccccc1)OCc1ccccc1` [Example 68, Benzyl 2-((3aR,4S,9bR)-1-{[(1S,2R)-2-(benzoylamino)cyclohexyl]carbonyl}-2,3,3a,4,5,9b-hexahydro-1H-pyrrolo[3,2-c]quinolin-4-yl)ethylcarbate], under 10 nM.

For the molecule `Cc1occc1[C@@H]1Nc2ccccc2[C@H]2[C@@H]1CCN2C(=O)[C@H]1CCCC[C@H]1NC(=O)c1ccccc1` [Example 75, N-((1R,2S)-2-{[(3aR,4R,9bR)-4-(2-Methyl-3-furyl)-2,3,3a,4,5,9b-hexahydro-1H-pyrrolo[3,2-c]quinolin-1-yl]carbonyl}cyclohexyl)benzamide], the IC50 is under 10 nM. In the case of `O=C(N[C@@H]1CCCC[C@@H]1C(=O)N1CC[C@@H]2[C@H](c3cocn3)Nc3ccccc3[C@@H]21)c1ccccc1` [Example 76, N-((1R,2S)-2-{[(3aR,4R,9bR)-4-(1,3-Oxazol-4-yl)-2,3,3a,4,5,9b-hexahydro-1H-pyrrolo[3,2-c]quinolin-1-yl]carbonyl}cyclohexyl)benzamide], the half-inhibitory concentration (IC50) was under 10 nM. `O=C(N[C@@H]1CCCC[C@@H]1C(=O)N1CC[C@@H]2[C@H](c3cncs3)Nc3ccccc3[C@@H]21)c1ccccc1` [Example 78, N-((1R,2S)-2-{[(3aR,4R,9bR)-4-(1,3-Thiazol-5-yl)-2,3,3a,4,5,9b-hexahydro-1H-pyrrolo[3,2-c]quinolin-1-yl]carbonyl}cyclohexyl)benzamide]: the IC50 is under 10 nM.

With `O=C(N[C@@H]1CCCC[C@@H]1C(=O)N1CC[C@@H]2[C@H](c3ncc[nH]3)Nc3ccccc3[C@@H]21)c1ccccc1` [Example 81, N-((1R,2S)-2-{[(3aR,4R,9bR)-4-(1H-imidazol-2-yl)-2,3,3a,4,5,9b-hexahydro-1H-pyrrolo[3,2-c]quinolin-1-yl]carbonyl}cyclohexyl)benzamide], the 50% inhibitory concentration (IC50) is under 1 nM. In the case of `Cn1ccnc1[C@@H]1Nc2ccccc2[C@H]2[C@@H]1CCN2C(=O)[C@H]1CCCC[C@H]1NC(=O)c1ccccc1` [Example 82, N-((1R,2S)-2-{[(3aR,4R,9bR)-4-(1-Methyl-1H-imidazol-2-yl)-2,3,3a,4,5,9b-hexahydro-1H-pyrrolo[3,2-c]quinolin-1-yl]carbonyl}cyclohexyl)benzamide] it was under 10 nM; in that of `C[C@]12CCN(C(=O)[C@H]3CCCC[C@H]3NC(=O)c3ccccc3)[C@H]1c1ccccc1N[C@H]2c1ccccc1` [Example 83, N-((1R,2S)-2-{[(3aR,4S,9bR)-3a-Methyl-4-phenyl-2,3,3a,4,5,9b-hexahydro-1H-pyrrolo[3,2-c]quinolin-1-yl]carbonyl}cyclohexyl)benzamide], under 10 nM; in that of `CC(=O)N[C@@H]1CCCC[C@@H]1C(=O)N1CC[C@@H]2[C@H](c3ccccc3)Nc3ccccc3[C@@H]21` [Example 85, N-((1R,25)-2-{[(3aR,4R,9bR)-4-Phenyl-2,3,3a,4,5,9b-hexahydro-1H-pyrrolo[3,2-c]quinolin-1-yl]carbonyl}cyclohexyl)acetamide], under 10 nM.
